Laboratory results reported in patent US20260022143A1, “Cyclic Peptide Inhibitors of IL-23” (JANSSEN PHARMACEUTICA NV, priority 2022, published 2026).
Positions of bridges follow the written chain, without caps; N, C: chain ends. Non-standard residues stand in square brackets, D forms with d. Residues, ends and D or L forms follow the SMILES beside them. *: point of attachment. Me3N+(CH2)2O(CH2)2O(CH2)2CO = C[N+](C)(C)CCOCCOCCC(=O)*; CH2CH2OCH2CH2OCH2CH2NMe3+ = C[N+](C)(C)CCOCCOCC*; NH(CH2CH2O)2CH2CH2NMe3+ = C[N+](C)(C)CCOCCOCCN*; Trp(7-Me) = Cc1cccc2c(C[C@H](N)C(=O)O)c[nH]c12; dLys(Me3) = C[N+](C)(C)CCCC[C@@H](N)C(=O)O; 2Nal = N[C@@H](Cc1ccc2ccccc2c1)C(=O)O; 3Pal = N[C@@H](Cc1cccnc1)C(=O)O; X14 = C[N+](C)(C)CCc1cn(CC*)nn1; Lys(Me) = CNCCCC[C@H](N)C(=O)O; X53 = C[N+]1(CCOCCOCC*)CCOCC1; Pen = CC(C)(S)[C@H](N)C(=O)O; X84 = CN(CCC[N+](C)(C)C)CC*; X88 = COCC[N+](C)(C)CCCC*; Thp = NC1(C(=O)O)CCOCC1; X92 = COCC[N+](C)(C)CC*; X3 = C[N+](C)(C)CCCCC*; X72 = C[N+](C)(C)CCCC*; X91 = c1cc[n+](CC*)cc1; Sar = CNCC(=O)O

experiment: Exposed Polar Surface Area (EPSA); type: physicochemical; settings: SFC on Chirex 3014 column; sample 1 mM DMSO stock; read-out: EPSA
Outline: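 Compounds, as 1 mM DMSO stock, were injected in duplicate onto an SFC Chirex 3014 column at 35 °C and eluted with a CO2/methanol (20 mM ammonium formate) gradient. EPSA values in Å^2 were derived from retention times using a linear fit to eight calibration standards, reinjected every 20 compounds.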

Point of comparison: CC(=O)N(C)CCCC[C@@H]1NC(=O)[C@H](Cc2c[nH]c3c(C)cccc23)NC(=O)[C@H]([C@@H](C)O)NC(=O)[C@H](CC(=O)N(C)C)NC(=O)[C@@H](NC(=O)CCOCCOCC[N+](C)(C)C)C(C)(C)SSC(C)(C)[C@@H](C(=O)N[C@@H](Cc2ccc(OCCN(C)CCC[N+](C)(C)C)cc2)C(=O)N[C@@H](Cc2ccc3ccccc3c2)C(=O)NC2(C(=O)N[C@@H](CCCCN(C)C(C)=O)C(=O)N[C@@H](CC(N)=O)C(=O)N[C@@H](Cc3cccnc3)C(=O)N(C)CC(=O)N(C)C)CCOCC2)NC1=O [compound 234, cPEG3aCO-Pen(3)-N(N(Me)2)-T-7MeW-K(NMeAc)-Pen(3)-AEF(MePrpa)-2Nal-THP-K(NMeAc)-N-3Pya-Sar-CON(Me)2] ({Me3N+(CH2)2O(CH2)2O(CH2)2CO}-[Pen]D(NMe2)T[Trp(7-Me)][Lys(Me)](Ac)[Pen]Y(X84)[2Nal][Thp][Lys(Me)](Ac)N[3Pal][Sar]-NMe2; disulfide 1-6), EPSA 141 A^2. Against it:
- CC(=O)N[C@H](CCCC[N+](C)(C)C)C(=O)N[C@@H]1C(=O)N[C@@H](CC(=O)N(C)C)C(=O)N[C@@H]([C@@H](C)O)C(=O)N[C@@H](Cc2c[nH]c3c(C)cccc23)C(=O)N[C@@H](CCCCN(C)C(C)=O)C(=O)N[C@H](C(=O)N[C@@H](Cc2ccc(OCCOCCOCC[N+](C)(C)C)cc2)C(=O)N[C@@H](Cc2ccc3ccccc3c2)C(=O)NC2(C(=O)N[C@@H](CCCCN(C)C(C)=O)C(=O)N[C@@H](CC(N)=O)C(=O)N[C@@H](Cc3cccnc3)C(=O)N(C)CC(=O)N(C)C)CCOCC2)C(C)(C)SSC1(C)C [compound 216, MeCO-k(Me)3-Pen(3)-N(N(Me)2)-T-7MeW-K(NMeAc)-Pen(3)-APEG3F-2Nal-THP-K(NMeAc)-N-3Pya-Sar-CON(Me)2] (Ac-[dLys(Me3)][Pen]D(NMe2)T[Trp(7-Me)][Lys(Me)](Ac)[Pen]Y(CH2CH2OCH2CH2OCH2CH2NMe3+)[2Nal][Thp][Lys(Me)](Ac)N[3Pal][Sar]-NMe2; disulfide 2-7) — the same, 141 A^2
- CC(=O)N[C@@H]1C(=O)N[C@@H](CC(=O)N(C)C)C(=O)N[C@@H]([C@@H](C)O)C(=O)N[C@@H](Cc2c[nH]c3c(C)cccc23)C(=O)N[C@@H](CCCCN(C)C(=O)CCOCCOCC[N+](C)(C)C)C(=O)N[C@H](C(=O)N[C@@H](Cc2ccc(OCCOCCOCC[N+](C)(C)C)cc2)C(=O)N[C@@H](Cc2ccc3ccccc3c2)C(=O)NC2(C(=O)N[C@@H](CCCCN(C)C(C)=O)C(=O)N[C@@H](CC(N)=O)C(=O)N[C@@H](Cc3cccnc3)C(=O)N(C)CC(=O)N(C)C)CCOCC2)C(C)(C)SSC1(C)C [compound 217, MeCO-Pen(3)-N(N(Me)2)-T-7MeW-K(NMePEG3a)-Pen(3)-APEG3F-2Nal-THP-K(NMeAc)-N-3Pya-Sar-CON(Me)2] (Ac-[Pen]D(NMe2)T[Trp(7-Me)][Lys(Me)](Me3N+(CH2)2O(CH2)2O(CH2)2CO)[Pen]Y(CH2CH2OCH2CH2OCH2CH2NMe3+)[2Nal][Thp][Lys(Me)](Ac)N[3Pal][Sar]-NMe2; disulfide 1-6) — lower, 138 A^2
- CC(=O)N[C@@H]1C(=O)N[C@@H](CC(=O)N(C)C)C(=O)N[C@@H]([C@@H](C)O)C(=O)N[C@@H](Cc2c[nH]c3c(C)cccc23)C(=O)N[C@@H](CCCCN(C)C(C)=O)C(=O)N[C@H](C(=O)N[C@@H](Cc2ccc(OCCOCCOCC[N+](C)(C)C)cc2)C(=O)N[C@@H](Cc2ccc3ccccc3c2)C(=O)NC2(C(=O)N[C@@H](CCCCN(C)C(=O)CCOCCOCC[N+](C)(C)C)C(=O)N[C@@H](CC(N)=O)C(=O)N[C@@H](Cc3cccnc3)C(=O)N(C)CC(=O)N(C)C)CCOCC2)C(C)(C)SSC1(C)C [compound 218, MeCO-Pen(3)-N(N(Me)2)-T-7MeW-K(NMeAc)-Pen(3)-APEG3F-2Nal-THP-K(NMePEG3a)-N-3Pya-Sar-CON(Me)2] (Ac-[Pen]D(NMe2)T[Trp(7-Me)][Lys(Me)](Ac)[Pen]Y(CH2CH2OCH2CH2OCH2CH2NMe3+)[2Nal][Thp][Lys(Me)](Me3N+(CH2)2O(CH2)2O(CH2)2CO)N[3Pal][Sar]-NMe2; disulfide 1-6) — lower, 136 A^2
- CC(=O)N[C@@H]1C(=O)N[C@@H](CC(=O)N(C)C)C(=O)N[C@@H]([C@@H](C)O)C(=O)N[C@@H](Cc2c[nH]c3c(C)cccc23)C(=O)N[C@@H](CCCCN(C)C(C)=O)C(=O)N[C@H](C(=O)N[C@@H](Cc2ccc(OCCCCC[N+](C)(C)C)cc2)C(=O)N[C@@H](Cc2ccc3ccccc3c2)C(=O)NC2(C(=O)N[C@@H](CCCCN(C)C(C)=O)C(=O)N[C@@H](CC(N)=O)C(=O)N[C@@H](Cc3cccnc3)C(=O)N(C)CC(=O)NCCOCCOCC[N+](C)(C)C)CCOCC2)C(C)(C)SSC1(C)C [compound 219, MeCO-Pen(3)-N(N(Me)2)-T-7MeW-K(NMeAc)-Pen(3)-TMAPF-2Nal-THP-K(NMeAc)-N-3Pya-Sar-CO(NHPEG3a)] (Ac-[Pen]D(NMe2)T[Trp(7-Me)][Lys(Me)](Ac)[Pen]Y(X3)[2Nal][Thp][Lys(Me)](Ac)N[3Pal][Sar]-{NH(CH2CH2O)2CH2CH2NMe3+}; disulfide 1-6 (inferred)) — lower, 139 A^2
- CC(=O)N(C)CCCC[C@@H]1NC(=O)[C@H](Cc2c[nH]c3c(C)cccc23)NC(=O)[C@H]([C@@H](C)O)NC(=O)[C@H](CC(=O)N(C)C)NC(=O)[C@@H](NC(=O)CCOCCOCC[N+](C)(C)C)C(C)(C)SSC(C)(C)[C@@H](C(=O)N[C@@H](Cc2ccc(OCCOCCOCC[N+]3(C)CCOCC3)cc2)C(=O)N[C@@H](Cc2ccc3ccccc3c2)C(=O)NC2(C(=O)N[C@@H](CCCCN(C)C(C)=O)C(=O)N[C@@H](CC(N)=O)C(=O)N[C@@H](Cc3cccnc3)C(=O)N(C)CC(=O)N(C)C)CCOCC2)NC1=O [compound 223, cPEG3aCO-Pen(3)-N(N(Me)2)-T-7MeW-K(NMeAc)-Pen(3)-MMPEG3F-2Nal-THP-K(NMeAc)-N-3Pya-Sar-CON(Me)2] ({Me3N+(CH2)2O(CH2)2O(CH2)2CO}-[Pen]D(NMe2)T[Trp(7-Me)][Lys(Me)](Ac)[Pen]Y(X53)[2Nal][Thp][Lys(Me)](Ac)N[3Pal][Sar]-NMe2; disulfide 1-6) — the same, 141 A^2
- CC(=O)N(C)CCCC[C@@H]1NC(=O)[C@H](Cc2c[nH]c3c(C)cccc23)NC(=O)[C@H]([C@@H](C)O)NC(=O)[C@H](CC(=O)N(C)C)NC(=O)[C@@H](NC(=O)CCOCCOCC[N+](C)(C)C)C(C)(C)SSC(C)(C)[C@@H](C(=O)N[C@@H](Cc2ccc(OCCCC[N+](C)(C)C)cc2)C(=O)N[C@@H](Cc2ccc3ccccc3c2)C(=O)NC2(C(=O)N[C@@H](CCCCN(C)C(C)=O)C(=O)N[C@@H](CC(N)=O)C(=O)N[C@@H](Cc3cccnc3)C(=O)N(C)CC(=O)N(C)C)CCOCC2)NC1=O [compound 226, cPEG3aCO-Pen(3)-N(N(Me)2)-T-7MeW-K(NMeAc)-Pen(3)-TMA4F-2Nal-THP-K(NMeAc)-N-3Pya-Sar-CON(Me)2] ({Me3N+(CH2)2O(CH2)2O(CH2)2CO}-[Pen]D(NMe2)T[Trp(7-Me)][Lys(Me)](Ac)[Pen]Y(X72)[2Nal][Thp][Lys(Me)](Ac)N[3Pal][Sar]-NMe2; disulfide 1-6) — higher, 142 A^2
- COCC[N+](C)(C)CCCCOc1ccc(C[C@H](NC(=O)[C@H]2NC(=O)[C@H](CCCCN(C)C(C)=O)NC(=O)[C@H](Cc3c[nH]c4c(C)cccc34)NC(=O)[C@H]([C@@H](C)O)NC(=O)[C@H](CC(=O)N(C)C)NC(=O)[C@@H](NC(=O)CCOCCOCC[N+](C)(C)C)C(C)(C)SSC2(C)C)C(=O)N[C@@H](Cc2ccc3ccccc3c2)C(=O)NC2(C(=O)N[C@@H](CCCCN(C)C(C)=O)C(=O)N[C@@H](CC(N)=O)C(=O)N[C@@H](Cc3cccnc3)C(=O)N(C)CC(=O)N(C)C)CCOCC2)cc1 [compound 227, cPEG3aCO-Pen(3)-N(N(Me)2)-T-7MeW-K(NMeAc)-Pen(3)-mPEG2TMA4F-2Nal-THP-K(NMeAc)-N-3Pya-Sar-CON(Me)2] ({Me3N+(CH2)2O(CH2)2O(CH2)2CO}-[Pen]D(NMe2)T[Trp(7-Me)][Lys(Me)](Ac)[Pen]Y(X88)[2Nal][Thp][Lys(Me)](Ac)N[3Pal][Sar]-NMe2; disulfide 1-6) — lower, 139 A^2
- COCC[N+](C)(C)CCOc1ccc(C[C@H](NC(=O)[C@H]2NC(=O)[C@H](CCCCN(C)C(C)=O)NC(=O)[C@H](Cc3c[nH]c4c(C)cccc34)NC(=O)[C@H]([C@@H](C)O)NC(=O)[C@H](CC(=O)N(C)C)NC(=O)[C@@H](NC(=O)CCOCCOCC[N+](C)(C)C)C(C)(C)SSC2(C)C)C(=O)N[C@@H](Cc2ccc3ccccc3c2)C(=O)NC2(C(=O)N[C@@H](CCCCN(C)C(C)=O)C(=O)N[C@@H](CC(N)=O)C(=O)N[C@@H](Cc3cccnc3)C(=O)N(C)CC(=O)N(C)C)CCOCC2)cc1 [compound 228, cPEG3aCO-Pen(3)-N(N(Me)2)-T-7MeW-K(NMeAc)-Pen(3)-mPEG2TMA2F-2Nal-THP-K(NMeAc)-N-3Pya-Sar-CON(Me)2] ({Me3N+(CH2)2O(CH2)2O(CH2)2CO}-[Pen]D(NMe2)T[Trp(7-Me)][Lys(Me)](Ac)[Pen]Y(X92)[2Nal][Thp][Lys(Me)](Ac)N[3Pal][Sar]-NMe2; disulfide 1-6) — lower, 139 A^2
- CC(=O)N(C)CCCC[C@@H]1NC(=O)[C@H](Cc2c[nH]c3c(C)cccc23)NC(=O)[C@H]([C@@H](C)O)NC(=O)[C@H](CC(=O)N(C)C)NC(=O)[C@@H](NC(=O)CCOCCOCC[N+](C)(C)C)C(C)(C)SSC(C)(C)[C@@H](C(=O)N[C@@H](Cc2ccc(OCC[n+]3ccccc3)cc2)C(=O)N[C@@H](Cc2ccc3ccccc3c2)C(=O)NC2(C(=O)N[C@@H](CCCCN(C)C(C)=O)C(=O)N[C@@H](CC(N)=O)C(=O)N[C@@H](Cc3cccnc3)C(=O)N(C)CC(=O)N(C)C)CCOCC2)NC1=O [compound 231, cPEG3aCO-Pen(3)-N(N(Me)2)-T-7MeW-K(NMeac)-Pen(3)-NPyEF-2Nal-THP-K(NMeAc)-N-3Pya-Sar-CON(Me)2] ({Me3N+(CH2)2O(CH2)2O(CH2)2CO}-[Pen]D(NMe2)T[Trp(7-Me)][Lys(Me)](Ac)[Pen]Y(X91)[2Nal][Thp][Lys(Me)](Ac)N[3Pal][Sar]-NMe2; disulfide 1-6) — higher, 147 A^2
- CC(=O)NCCCC[C@@H]1NC(=O)[C@H](Cc2c[nH]c3c(C)cccc23)NC(=O)[C@H]([C@@H](C)O)NC(=O)[C@H](CC(N)=O)NC(=O)[C@@H](NC(C)=O)C(C)(C)SSC(C)(C)[C@@H](C(=O)N[C@@H](Cc2ccc(OCCn3cc(CC[N+](C)(C)C)nn3)cc2)C(=O)N[C@@H](Cc2ccc3ccccc3c2)C(=O)NC2(C(=O)N[C@@H](CCCCNC(C)=O)C(=O)N[C@@H](CC(N)=O)C(=O)N[C@@H](Cc3cccnc3)C(=O)N(C)CC(N)=O)CCOCC2)NC1=O [compound 235] (Ac-[Pen]NT[Trp(7-Me)]K(Ac)[Pen]Y(X14)[2Nal][Thp]K(Ac)N[3Pal][Sar]-NH2; disulfide 1-6 (inferred)) — higher, 149 A^2
